Patent US20240325460A1, “MOLECULAR BACTE[…] CONTROL SKIN ENZYMATIC ACTIVITY” (The Regents of the University of California, priority 2017, published 2024)

Tests used:
[1] = system: normal human epidermal keratinocytes (NHEKs); test: RNA-Seq transcriptional profiling of NHEKs; type: cell-based; details: synthetic peptide, 24 h
Method: RNA sequencing. RNA was submitted to the University of California, San Diego (UCSD) genomic core facility for library preparation and sequencing. TruSeq mRNA Library Prep Kit (Illumina) was used for library prep followed by high-throughput sequencing on a HiSeq 2500 sequencer (Illumina). Data was analyzed using Partek Flow and Partek Genomics Suite software and gene ontology analysis was performed using the PANTHER classification system (http[://]pantherdb.org).

[2] = system: KLK mRNA expression in NHEKs; test: KLK mRNA expression in NHEKs by quantitative real-time PCR; type: cell-based, human; details: synthetic peptide, normalized to GAPDH
Method: Quantitative real-time PCR. RNA was isolated from NHEKs using Purelink RNA isolation columns (ThermoFisher Scientific) according to the manufacturer's instructions. RNA was quantified using a Nanodrop spectrophotometer (ThermoFisher Scientific), and 500 ng of RNA was reverse-transcribed using the iScript cDNA synthesis kit (Bio-Rad, Irvine, CA). Quantitative real-time PCR reactions were ran on a CFX96 real-time detection system (Bio-Rad) using gene-specific primers and TaqMan probes (ThermoFisher Scientific).
RNA isolation and quantitative real-time PCR. All RNA was isolated using the Purelink RNA isolation kit according to manufacturer's instructions (Thermo Fisher Scientific). For NHEKs, 350 μL RNA lysis buffer (with 1% β-mercaptoethanol) was added directly to cells. For mouse tissue, 0.5 cm^2 full thickness skin was bead beat (2× 30 sec, 2.0 mm zirconia bead) in 750 μL of RNA lysis buffer with 5 minutes on ice in between. Tissue was than centrifuged (10 min, 13,000 RPM, 4° C.), followed by adding 350 μL of clear lysate to 70% EtOH and column based isolation of RNA. […] After RNA isolation, samples were quantified with a Nanodrop (ThermoFisher Scientific), and 500 ng of RNA was reverse-transcribed using the iScript cDNA synthesis kit (Bio-Rad). qPCR reactions were ran on a CFX96 Real-Time Detection System (Bio-Rad). […]

[3] = system: normal human epidermal keratinocytes (NHEKs); test: Trypsin-like activity of NHEK conditioned medium (Boc-Val-Pro-Arg-AMC substrate); type: cell-based
Method: (§1) Culture of primary human keratinocytes. Neonatal NHEKs (ThermoFisher Scientific, Waltham, MA) were cultured in EpiLife medium (ThermoFisher Scientific) supplemented with 1× EpiLife defined growth supplement (ThermoFisher Scientific), 60 μM CaCl2, and 1× antibiotic-antimycotic (PSA; 100 U/ml penicillin, […] streptomycin, 250 ng/ml amphotericin B; ThermoFisher Scientific) at 37° C., 5% CO2. For experiments, NHEKs were grown to 70% confluency followed by differentiation in high calcium EpiLife medium (2 mM CaCl2) for 48 hours before treatment with bacteria sterile filtered supernatant. […] For bacterial supernatant treatments, differentiated NHEKs were treated with sterile filtered bacterial supernatant at 5% by volume to EpiLife medium. NHEKs were only used for experiments between passages 3 and 5.
Protease activity assays. […] Relative fluorescent intensity was analyzed with a SpectraMAX Gemini EM fluorometer (ThermoFisher Scientific) at RTwith readings every 2 hours for 24 hours. BODIPY FL casein plates were read at ex: 485 nm and em: 530 nm. Elastin-like and MMP substrate plates were read at ex: 485 nm and em: 515 nm. Trypsin-like substrate plates were read at ex: 354 nm and em: 435 nm. […]
Trypsin Activity Analysis. […] Relative fluorescent intensity (ex: 354 nm, em: 435 nm) was analyzed with a SpectraMAX Gemini EM fluorometer (Thermo Fisher Scientific). […]

[4] = system: normal human epidermal keratinocytes (NHEKs); test: Total protease activity of NHEK conditioned medium (BODIPY FL casein); type: cell-based; details: 800 μg ml applied to 24-hour posttreatment conditioned medium
Method: as §1
Protease activity assays. […] Relative fluorescent intensity was analyzed with a SpectraMAX Gemini EM fluorometer (ThermoFisher Scientific) at RTwith readings every 2 hours for 24 hours. BODIPY FL casein plates were read at ex: 485 nm and em: 530 nm. Elastin-like and MMP substrate plates were read at ex: 485 nm and em: 515 nm. Trypsin-like substrate plates were read at ex: 354 nm and em: 435 nm.

## f-MEFVAKLFKFFKDLLGKFLGNN [PSMα3]
[1]
  transcriptional profile (RNA-Seq) of NHEKs: broad effect on expression of genes related to the skin barrier
[2]
  dose and time dependence of KLK6 mRNA expression in NHEKs: dose and time dependent manner
[3]; synthetic peptide
  dose and time dependence of trypsin activity stimulation in NHEKs: dose and time dependent manner
[3]; synthetic peptide added to NHEKs for up to 24 h
  trypsin activity in NHEKs treated with synthetic PSM peptide: strongest PSMα trypsin activity inducers

## aprotinin
[4]
  effect of serine protease inhibitor on S. aureus-induced total protease activity: confirmed that this activity was due to serine proteases
